Data as given in US9834542B2, “LXR modulators” (BRISTOL-MYERS SQUIBB COMPANY, priority 2013, dated 2017).

Target: T1, LXRβ (Homo sapiens, UniProt P55055)
T1 construct: Co-transfection expression plasmids, comprising full-length LXRα (pCMX-h LXRα[…] or LXRβ (pCMX-hLXRβ)); expressed in transfected cells; host or cells: CV-1 African Green Monkey Kidney Cells
T1 sequence (P55055 1-460): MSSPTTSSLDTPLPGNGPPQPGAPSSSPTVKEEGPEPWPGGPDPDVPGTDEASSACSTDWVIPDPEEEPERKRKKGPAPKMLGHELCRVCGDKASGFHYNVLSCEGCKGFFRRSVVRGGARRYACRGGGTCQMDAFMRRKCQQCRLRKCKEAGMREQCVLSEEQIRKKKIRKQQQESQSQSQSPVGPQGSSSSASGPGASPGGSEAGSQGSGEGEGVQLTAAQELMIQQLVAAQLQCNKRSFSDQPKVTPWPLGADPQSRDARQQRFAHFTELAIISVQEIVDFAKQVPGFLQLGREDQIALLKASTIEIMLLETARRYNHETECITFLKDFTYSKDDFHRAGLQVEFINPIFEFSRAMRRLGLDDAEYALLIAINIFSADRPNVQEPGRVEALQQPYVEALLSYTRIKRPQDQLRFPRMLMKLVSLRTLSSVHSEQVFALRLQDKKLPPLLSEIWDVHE
T1 sequence (P19793 1-462 partner): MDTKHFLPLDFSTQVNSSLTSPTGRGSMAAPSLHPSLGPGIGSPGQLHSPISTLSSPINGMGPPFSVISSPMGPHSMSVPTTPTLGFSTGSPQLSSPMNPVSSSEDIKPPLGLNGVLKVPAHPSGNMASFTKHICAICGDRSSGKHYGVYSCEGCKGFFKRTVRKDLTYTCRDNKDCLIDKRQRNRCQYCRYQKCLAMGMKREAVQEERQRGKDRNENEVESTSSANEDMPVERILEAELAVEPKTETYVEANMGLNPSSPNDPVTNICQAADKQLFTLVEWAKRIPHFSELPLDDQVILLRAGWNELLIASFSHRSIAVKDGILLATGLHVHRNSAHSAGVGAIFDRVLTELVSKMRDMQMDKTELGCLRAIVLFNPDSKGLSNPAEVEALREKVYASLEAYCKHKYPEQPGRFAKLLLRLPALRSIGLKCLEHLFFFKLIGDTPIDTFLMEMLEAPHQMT
Assay: Co-transfection assay (LXRE luciferase reporter), LXRβ
Format: cell-based
Design: % Efficacy: concentration or dose not given beside the values
Details: for EC50: CV-1 cells transfected with pCMX-hLXRβ and LXREx1-Tk-Luciferase, 20 hours incubation; for Emax: read-out: % Efficacy
Outline: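 CV-1 cells transiently co-transfected with full-length human LXRβ (or LXRα), LXREx1-Tk-luciferase reporter and β-galactosidase control; compound added (10 μM final in single-point, 11-point ½-log curves, ≤0.5% DMSO) for 20 h at 37 °C. Luciferase read; EC50 from four-parameter fit, efficacy relative to reference agonist high control.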

[1] = LXRβ co-transfection, relative to high control 1-(2,4-difluorobenzyl)-2-oxo-6-(4-phenoxyphenyl)-4-(trifluoromethyl)-1,2-dihydropyridine-3-carbonitrile

SMILES | EC50 [nM] | Emax [1] [%] | % Efficacy [1] [%]
CCc1nc(-c2cc(-c3cc(F)c(CO)c(S(C)(=O)=O)c3)ccc2-n2cc(C(F)(F)F)nc2C)c(-c2ccc(OC(F)(F)F)cc2)o1 [Example 556, (3′-(2-ethyl-5-(4-(trifluoromethoxy)phenyl)oxazol-4-yl)-3-fluoro-4′-(2-methyl-4-(trifluoromethyl)-1H-imidazol-1-yl)-5-(methylsulfonyl)-[1,1′-biphenyl]-4-yl)methanol] | 13 | 100 | –
Cc1nc(C(F)(F)F)cn1-c1ccc(-c2cccc(S(C)(=O)=O)c2)cc1-c1nc(C(C)C)oc1-c1ccc2c(c1)OC(F)(F)O2 [Example 480, 5-(2,2-difluorobenzo[d][1,3]dioxol-5-yl)-2-isopropyl-4-(4-(2-methyl-4-(trifluoromethyl)-1H-imidazol-1-yl)-3′-(methylsulfonyl)biphenyl-3-yl)oxazole] | 63 | 74 | –
Cc1nc(-c2cc(-c3ccc(CO)c(S(C)(=O)=O)c3)ccc2-n2cc(C(F)(F)F)nc2C)c(-c2cc(F)c(OC(F)F)c(F)c2)o1 [Example 469, (3′-(5-(4-(difluoromethoxy)-3,5-difluorophenyl)-2-methyloxazol-4-yl)-4′-(2-methyl-4-(trifluoromethyl)-1H-imidazol-1-yl)-3-(methylsulfonyl)biphenyl-4-yl)methanol] | 89 | 70 | –
Cc1nc(C(F)(F)F)cn1-c1c(F)cc(-c2cccc(S(=O)(=O)NCCO)c2)cc1-n1nncc1-c1ccc(OC(F)(F)F)cc1 [Example 208, 3′-fluoro-N-(2-hydroxyethyl)-4′-[2-methyl-4-(trifluoromethyl)-1H-imidazol-1-yl]-5′-(5-{4-[(trifluoromethyl)oxy]phenyl}-1H-1,2,3-triazol-1-yl)biphenyl-3-sulfonamide] | 1270 | 77 | –
Cc1nc(-c2cc(-c3cc(F)c(CO)c(S(C)(=O)=O)c3)ccc2-n2cc(C(F)(F)F)nc2C)c(-c2ccc(Cl)c(Cl)c2)o1 [Example 507, (3′-(5-(3,4-dichlorophenyl)-2-methyloxazol-4-yl)-3-fluoro-4′-(2-methyl-4-(trifluoromethyl)-1H-imidazol-1-yl)-5-(methylsulfonyl)biphenyl-4-yl)methanol] | 35 | 62 | –
Cc1nc(-c2cc(-c3cccc(S(C)(=O)=O)c3)ccc2-n2cc(C(F)(F)F)nc2C)c(-c2ccc(OC(F)(F)F)cc2)o1 [Example 366, 2-methyl-4-{3′-(methylsulfonyl)-4-[2-methyl-4-(trifluoromethyl)-1H-imidazol-1-yl]biphenyl-3-yl}-5-{4-[(trifluoromethyl)oxy]phenyl}-1,3-oxazole] | 77 | 89 | –
Cc1ccc(C(C)c2cnnn2-c2cc(-c3cccc(S(=O)(=O)N(C)C)c3)ccc2-n2cc(C(F)(F)F)nc2C)cc1 (stereo not shown) [Example 105, N,N-dimethyl-3′-{5-[1-(4-methylphenyl)ethyl]-1H-1,2,3-triazol-1-yl}-4′-[2-methyl-4-(trifluoromethyl)-1H-imidazol-1-yl]biphenyl-3-sulfonamide] | 227 | 70 | –
Cc1nc(C(F)(F)F)cn1-c1ccc(-c2ccc(CCO)c(S(C)(=O)=O)c2)cc1-n1nncc1-c1ccc(OC(F)(F)F)cc1 [Example 236, 2-(4′-(2-methyl-4-(trifluoromethyl)-1H-imidazol-1-yl)-3-(methylsulfonyl)-3′-(5-(4-(trifluoromethoxy)phenyl)-1H-1,2,3-triazol-1-yl)-[1,1′-biphenyl]-4-yl)ethanol] | 198 | 89 | –
Cc1nc(C(=O)C(C)C)cn1-c1ccc(-c2cccc(S(C)(=O)=O)c2)cc1-n1nncc1-c1ccc(OC(F)(F)F)cc1 [Example 234, 2-methyl-1-(2-methyl-1-(3′-(methylsulfonyl)-3-(5-(4-(trifluoromethoxy)phenyl)-1H-1,2,3-triazol-1-yl)-[1,1′-biphenyl]-4-yl)-1H-imidazol-4-yl)propan-1-one] | 1200 | 75 | –
Cc1nc(C(F)(F)F)cn1-c1ccc(-c2cccc(S(C)(=O)=O)c2)cc1-n1nncc1-c1ccc(Cl)c(F)c1 [Example 69, 5-(4-chloro-3-fluorophenyl)-1-{3′-(methylsulfonyl)-4-[2-methyl-4-(trifluoromethyl)-1H-imidazol-1-yl]biphenyl-3-yl}-1H-1,2,3-triazole] | 341 | 113 | –
Cc1cc(-c2oc(C)nc2-c2cc(-c3cc(F)c(CO)c(S(C)(=O)=O)c3)ccc2-n2cc(C(F)(F)F)nc2C)cc(Cl)n1 [Example 452, (3′-(5-(2-chloro-6-methylpyridin-4-yl)-2-methyloxazol-4-yl)-3-fluoro-4′-(2-methyl-4-(trifluoromethyl)-1H-imidazol-1-yl)-5-(methylsulfonyl)biphenyl-4-yl)methanol] | 83 | – | 55
Cc1nc(C(F)(F)F)cn1-c1ccc(-c2cc(F)c(CO)c(S(C)(=O)=O)c2)cc1-n1nncc1-c1ccc(OC(F)(F)F)c(F)c1 [Example 56, {3-fluoro-3′-(5-{3-fluoro-4-[(trifluoromethyl)oxy]phenyl}-1H-1,2,3-triazol-1-yl)-5-(methylsulfonyl)-4′-[2-methyl-4-(trifluoromethyl)-1H-imidazol-1-yl]biphenyl-4-yl}methanol] | 133 | 101 | –
Cc1nc(-c2cc(-c3cc(F)c(CO)c(S(C)(=O)=O)c3)ccc2-n2cc(C(F)(F)F)nc2C)c(-c2ccc3ccccc3c2)o1 [Example 437, (3-fluoro-4′-(2-methyl-4-(trifluoromethyl)-1H-imidazol-1-yl)-3′-(2-methyl-5-(naphthalen-2-yl)oxazol-4-yl)-5-(methylsulfonyl)biphenyl-4-yl)methanol] | 34 | 76 | –
Cc1nc(C(F)F)cn1-c1ccc(-c2cccc(S(C)(=O)=O)c2)cc1-n1nncc1-c1ccc(OC(F)(F)F)cc1 [Example 6] | 848 | 93 | –

Continued by falling EC50, values first:

EC50 [nM] | Emax [1] [%] | % Efficacy [1] [%] | SMILES
1240 | 52 | – | Cc1nc(C(F)(F)F)cn1-c1ccc(-c2cc(F)c(CO)c(S(C)(=O)=O)c2)c(Cl)c1-n1nncc1-c1ccc(Cl)cc1Cl [Example 103, {2′-chloro-3′-[5-(2,4-dichlorophenyl)-1H-1,2,3-triazol-1-yl]-3-fluoro-5-(methylsulfonyl)-4′-[2-methyl-4-(trifluoromethyl)-1H-imidazol-1-yl]biphenyl-4-yl}methanol]
1100 | 36 | – | Cc1nc(C(F)(F)F)cn1-c1ccc(-c2cccc(S(C)(=O)=O)c2)cc1-n1nncc1Cc1ccccc1OC(F)(F)F [Example 123, 1-{3′-(methylsulfonyl)-4-[2-methyl-4-(trifluoromethyl)-1H-imidazol-1-yl]biphenyl-3-yl}-5-({2-[(trifluoromethyl)oxy]phen-yl}methyl)-1H-1,2,3-triazole]
484 | 109 | – | Cc1nc(C(F)(F)F)cn1-c1ccc(-c2cc(F)cc(S(C)(=O)=O)c2)cc1-n1nncc1-c1ccc(OC(F)(F)F)cc1 [Example 91, 1-{3′-fluoro-5′-(methylsulfonyl)-4-[2-methyl-4-(trifluoromethyl)-1H-imidazol-1-yl]biphenyl-3-yl}-5-{4-[(trifluoromethyl)oxy]phenyl}-1H-1,2,3-triazole]
474 | 39 | – | Cc1nc(-c2cc(-c3cccc(S(C)(=O)=O)c3)ccc2-n2cc(C(F)(F)F)nc2C)c(-c2ccccc2OC(F)F)o1 [Example 547, 5-(2-(difluoromethoxy)phenyl)-2-methyl-4-(4-(2-methyl-4-(trifluoromethyl)-1H-imidazol-1-yl)-3′-(methylsulfonyl)-[1,1′-biphenyl]-3-yl)oxazole]
171 | 88 | – | Cc1ccc(-c2cnnn2-c2cc(-c3cccc(S(C)(=O)=O)c3)ccc2-n2cc(C(F)(F)F)nc2C)cc1 [Example 50, 5-(4-methylphenyl)-1-{3′-(methylsulfonyl)-4-[2-methyl-4-(trifluoromethyl)-1H-imidazol-1-yl]biphenyl-3-yl}-1H-1,2,3-triazole]
48 | 57 | – | Cc1nc(-c2cc(-c3cccc(S(C)(=O)=O)c3)ccc2-n2cc(C(F)(F)F)nc2C)c(-c2ccc(Cl)cc2F)o1 [Example 484, 5-(4-chloro-2-fluorophenyl)-2-methyl-4-(4-(2-methyl-4-(trifluoromethyl)-1H-imidazol-1-yl)-3′-(methylsulfonyl)biphenyl-3-yl)oxazole]
